Test results from PubChem BioAssay AID1259407 (Chemical Carcinogenesis Research Information System (CCRIS), 2018).
The source made the active and inactive calls. No rule for the calls is given here.

System: CCRIS mutagenicity, Ames/micronucleus/aberration tests
Test: CCRIS mutagenicity studies
[1] = Test System: AMES SALMONELLA TYPHIMURIUM, Strain/Indicator: TA98, Metabolic Activation: NONE, Method: STANDARD PLATE
[2] = Test System: AMES SALMONELLA TYPHIMURIUM, Strain/Indicator: TA100, Metabolic Activation: NONE, Method: STANDARD PLATE
[3] = Test System: AMES SALMONELLA TYPHIMURIUM, Strain/Indicator: TA102, Metabolic Activation: NONE, Method: STANDARD PLATE
[4] = Test System: AMES SALMONELLA TYPHIMURIUM, Strain/Indicator: TA100, Metabolic Activation: NONE, Method: PREINCUBATION
[5] = Test System: AMES SALMONELLA TYPHIMURIUM, Strain/Indicator: TA98, Metabolic Activation: RAT, LIVER, S-9, AROCLOR 1254, Method: STANDARD PLATE
[6] = Test System: AMES SALMONELLA TYPHIMURIUM, Strain/Indicator: TA100, Metabolic Activation: RAT, LIVER, S-9, AROCLOR 1254, Method: STANDARD PLATE

In the case of COc1ccc([N+](=O)[O-])c2c(NCCCN(C)C)c3ccccc3nc12, the mutagenic call [1] is reported as “active; positive” and the mutagenic call [2] is reported as “inactive; negative”.
In the case of c1ccc2c(c1)C1CCCCC1[C@@H]1O[C@@H]21 (stereo not given in full), the mutagenic call [1] is reported as “inactive; negative” and the mutagenic call [2] is reported as “inactive; negative”.
In the case of COc1nsc2ccc([N+](=O)[O-])cc12, the mutagenic call [2] is reported as “active; positive”.
For CC1(c2ccccc2)C(=O)c2ccccc2N1[O] (stereo not given), the mutagenic call [1] was “inactive; negative”, the mutagenic call [2] was “inactive; negative” and the mutagenic call [3] was “inactive; negative”.
For N[C@@H](CCC(=O)N[C@@H](CS/C(Cl)=C(\Cl)C(Cl)=C(Cl)Cl)C(=O)NCC(=O)O)C(=O)O, the mutagenic call [4] was “active; positive”, the mutagenic call [2] was “inactive; negative” and the mutagenic call (Test System: AMES SALMONELLA TYPHIMURIUM, Strain/Indicator: TA100, Metabolic Activation: RAT, KIDNEY, CYTOSOL, Method: PREINCUBATION) was “active; positive”. The mutagenic call (Test System: AMES SALMONELLA TYPHIMURIUM, Strain/Indicator: TA100, Metabolic Activation: RAT, KIDNEY, MICROSOMES, Method: PREINCUBATION) was “active; positive”, the mutagenic call (Test System: AMES SALMONELLA TYPHIMURIUM, Strain/Indicator: TA100, Metabolic Activation: RAT, KIDNEY, MITOCHONDRIA, Method: PREINCUBATION) was “active; positive” and the mutagenic call (Test System: AMES SALMONELLA TYPHIMURIUM, Strain/Indicator: TA100, Metabolic Activation: RAT, KIDNEY, S-9, AROCLOR 1254, Method: STANDARD PLATE) was “active; positive”.
Cc1c(N(C)C)c(=O)n(-c2ccccc2)n1C was tested, and the mutagenic call (Test System: AMES SALMONELLA TYPHIMURIUM, Strain/Indicator: TA97, Metabolic Activation: NONE, Method: STANDARD PLATE) was “inactive; negative”, the mutagenic call (Test System: AMES SALMONELLA TYPHIMURIUM, Strain/Indicator: TA97, Metabolic Activation: RAT, LIVER, S-9, AROCLOR 1254, Method: STANDARD PLATE) was “inactive; negative” and the mutagenic call (Test System: AMES SALMONELLA TYPHIMURIUM, Strain/Indicator: TA98, Metabolic Activation: GUINEA PIG, LIVER, S-9, PCB, Method: PREINCUBATION) was “inactive; negative”. The mutagenic call (Test System: AMES SALMONELLA TYPHIMURIUM, Strain/Indicator: TA98, Metabolic Activation: HAMSTER, LIVER, S-9, PCB, Method: PREINCUBATION) was “inactive; negative”, the mutagenic call (Test System: AMES SALMONELLA TYPHIMURIUM, Strain/Indicator: TA98, Metabolic Activation: MOUSE, LIVER, S-9, PCB, Method: PREINCUBATION) was “inactive; negative” and the mutagenic call (Test System: AMES SALMONELLA TYPHIMURIUM, Strain/Indicator: TA98, Metabolic Activation: NONE, Method: PREINCUBATION) was “inactive; negative”. For the same compound, the mutagenic call [1] was “inactive; negative”, the mutagenic call [5] was “inactive; negative” and the mutagenic call (Test System: AMES SALMONELLA TYPHIMURIUM, Strain/Indicator: TA98, Metabolic Activation: RAT, LIVER, S-9, PCB, Method: PREINCUBATION) was “inactive; negative”. For the same compound, the mutagenic call (Test System: AMES SALMONELLA TYPHIMURIUM, Strain/Indicator: TA100(FR1), Metabolic Activation: NONE, Method: STANDARD PLATE) was “inactive; negative”, the mutagenic call (Test System: AMES SALMONELLA TYPHIMURIUM, Strain/Indicator: TA100(FR1), Metabolic Activation: RAT, LIVER, S-9, PHENOBARBITAL AND 3-METHYLCHOLANTHRENE, Method: STANDARD PLATE) was “inactive; negative” and the mutagenic call (Test System: AMES SALMONELLA TYPHIMURIUM, Strain/Indicator: TA100, Metabolic Activation: GUINEA PIG, LIVER, S-9, PCB, Method: PREINCUBATION) was “inactive; negative”. The mutagenic call (Test System: AMES SALMONELLA TYPHIMURIUM, Strain/Indicator: TA100, Metabolic Activation: HAMSTER, LIVER, S-9, PCB, Method: PREINCUBATION) was “inactive; negative”, the mutagenic call (Test System: AMES SALMONELLA TYPHIMURIUM, Strain/Indicator: TA100, Metabolic Activation: MOUSE, LIVER, S-9, PCB, Method: PREINCUBATION) was “inactive; negative” and the mutagenic call [4] was “inactive; negative”. The mutagenic call [2] was “inactive; negative”, the mutagenic call [6] was “inactive; negative” and the mutagenic call (Test System: AMES SALMONELLA TYPHIMURIUM, Strain/Indicator: TA100, Metabolic Activation: RAT, LIVER, S-9, PCB, Method: PREINCUBATION) was “inactive; negative”. For the same compound, the mutagenic call (Test System: AMES SALMONELLA TYPHIMURIUM, Strain/Indicator: TA100, Metabolic Activation: RAT, LIVER, S-9, PHENOBARBITAL AND 3-METHYLCHOLANTHRENE, Method: STANDARD PLATE) was “inactive; negative”, the mutagenic call [3] was “inactive; negative” and the mutagenic call (Test System: AMES SALMONELLA TYPHIMURIUM, Strain/Indicator: TA102, Metabolic Activation: RAT, LIVER, S-9, AROCLOR 1254, Method: STANDARD PLATE) was “inactive; negative”. The mutagenic call (Test System: AMES SALMONELLA TYPHIMURIUM, Strain/Indicator: TA104, Metabolic Activation: NONE, Method: STANDARD PLATE) was “inactive; negative”, the mutagenic call (Test System: AMES SALMONELLA TYPHIMURIUM, Strain/Indicator: TA104, Metabolic Activation: RAT, LIVER, S-9, AROCLOR 1254, Method: STANDARD PLATE) was “inactive; negative” and the mutagenic call (Test System: CHINESE HAMSTER V-79, Strain/Indicator: V-79/6-THIOGUANINE, Metabolic Activation: NONE) was “inactive; negative”. For the same compound, the mutagenic call (Test System: CHINESE HAMSTER V-79, Strain/Indicator: V-79/6-THIOGUANINE, Metabolic Activation: RAT, LIVER, HEPATOCYTES) was “inactive; negative”, the mutagenic call (Test System: CHINESE HAMSTER V-79, Strain/Indicator: V-79/OUABAIN, Metabolic Activation: NONE) was “inactive; negative” and the mutagenic call (Test System: CHINESE HAMSTER V-79, Strain/Indicator: V-79/OUABAIN, Metabolic Activation: RAT, LIVER, HEPATOCYTES) was “inactive; negative”.
With Cc1cc2c(cc1C)-c1ccccc1C2 the mutagenic call [5] was “inactive; negative” and the mutagenic call [6] was “inactive; negative”.
OC1=c2c(O)cc3cccc4ccc(c2c43)C23CCCCC12O3 (stereo not given) was tested, and the mutagenic call (Test System: CHINESE HAMSTER V-79, Strain/Indicator: V-79/8-AZAGUANINE, Metabolic Activation: NONE, Method: STANDARD PLATE) was “active; positive”.
With O=c1c(O)c(-c2ccccc2)oc2cc(O)cc(O)c12 the mutagenic call [4] was “inactive; negative” and the mutagenic call (Test System: AMES SALMONELLA TYPHIMURIUM, Strain/Indicator: TA100, Metabolic Activation: RAT LIVER S-9, AROCLOR 1254, Method: PREINCUBATION) was “inactive; negative”.
In the case of Nc1cccc2c1Cc1ccccc1-2, the mutagenic call (Test System: AMES SALMONELLA TYPHIMURIUM, Strain/Indicator: TA98, Metabolic Activation: RAT, LIVER, S-9, AROCLOR 1254 (2 OR 4%), Method: STANDARD PLATE) is reported as “active; positive”, the mutagenic call (Test System: AMES SALMONELLA TYPHIMURIUM, Strain/Indicator: TA100, Metabolic Activation: RAT, LIVER, S-9, AROCLOR 1254 (4%), Method: STANDARD PLATE) is reported as “active; positive” and the mutagenic call (Test System: AMES SALMONELLA TYPHIMURIUM, Strain/Indicator: TA1535, Metabolic Activation: RAT, LIVER, S-9, AROCLOR 1254 (4%), Method: STANDARD PLATE) is reported as “inactive; negative”. For the same compound, the mutagenic call (Test System: AMES SALMONELLA TYPHIMURIUM, Strain/Indicator: TA1537, Metabolic Activation: RAT, LIVER, S-9, AROCLOR 1254 (4%), Method: STANDARD PLATE) was “active; positive”.
